Measurements from paper PMC4287394 (Clinical cancer research : an official journal of the …, 2014).

Columns and labels:
[1] = tested on: phospho-AKT (Ser473) in platelet-rich plasma; experiment: Phospho-AKT in platelet-rich plasma; assay type: in vivo, human
[2] = tested on: phospho-S6 (Ser235/236) in tumor tissue; experiment: Phospho-S6 immunohistochemistry in paired tumor biopsies; assay type: in vivo, human
tumor 18F-FDG uptake = experiment: Whole body 18F-FDG-PET; assay type: in vivo, human
advanced solid tumors = experiment: Antitumor activity; assay type: in vivo, human
[3] = tested on: purified recombinant human PI3K p110α; settings: read-out: IC50 p110α; purified recombinant human PI3K isoforms; cited from earlier work
plasma insulin = settings: 330mg, cycle 1 day 1, 1 hour from baseline
[4] = tested on: purified recombinant human PI3K p110β; settings: read-out: IC50 p110β; purified recombinant human PI3K isoforms; cited from earlier work
[5] = tested on: purified recombinant human PI3K p110δ; settings: read-out: IC50 p110δ; purified recombinant human PI3K isoforms; cited from earlier work
mTOR = settings: cited from earlier work
[6] = tested on: U87MG glioblastoma xenografts; settings: oral dose of 150mg/kg; U87MG glioblastoma xenograft; cited from earlier work
[7] = tested on: IGROV1 ovarian cancer xenografts; settings: oral dose of 150mg/kg; IGROV1 ovarian cancer xenograft; cited from earlier work
[8] = cited from earlier work
Class I PI3K = settings: cited from earlier work
[9] = patient with cKIT exon 9 mutant gastrointestinal stromal tumor, 450mg once-daily
[10] = platinum-refractory ovarian cancer patient, 100mg once-daily 21/28
[11] = 9 patients with PI3K pathway alterations
[12] = patient with BRAF V600E-mutated metastatic melanoma, 330mg once-daily 21/28

CS(=O)(=O)N1CCN(Cc2cc3nc(-c4cccc5[nH]ncc45)nc(N4CCOCC4)c3s2)CC1 [pictilisib, 2-(1H-indazol-4-yl)-6-(4-methanesulfonyl-piperazin-1-ylmethyl)-4-morpholin-4-yl-t hieno[3,2-d]pyrimidine]
Inhibition of phospho-AKT level in platelet rich plasma ([1]; 1 to 3 hours post-dose at the RP2D (330mg)): up to 90%
Suppression of phosphorylated serine-473 AKT in platelet rich plasma ([1]; 3 hours post-dose at the MTD): > 90%
Phospho-AKT in platelet rich plasma, sustained effect, % of baseline ([1]; 24 hours post-dose at the RP2D (330mg)): 50%
Reduction in tumor phospho-S6 expression [2, 9]: 75%
Reduction in tumor phospho-S6 expression [2, 10]: 56%
Patients with metabolic partial response by EORTC-PET criteria (tumor 18F-FDG uptake; 32 evaluable patients): 22%
Patients with metabolic partial response by EORTC-PET criteria (>25% reduction in mean SUVmax) (tumor 18F-FDG uptake; 32 evaluable patients): 7 of 32 and Seven of 32
Overall median change in SUVmax (tumor 18F-FDG uptake; all evaluable patients): −13%
Range of change in SUVmax (tumor 18F-FDG uptake; all evaluable patients): −47 to 22%
Dose levels showing reduction from baseline of 18F-FDG-tracer uptake (tumor 18F-FDG uptake; in vivo): ≥ 45 mg
Reduction in SUVmax on 18F-FDG-PET (tumor 18F-FDG uptake; [9]): 47%
Reduction in mean SUVmax in subcapsular liver metastases (tumor 18F-FDG uptake; [10]): 30%
Patients with RECIST-based response (advanced solid tumors; [11]): none
Patients with response by GCIG-CA125 criteria (advanced solid tumors; [11]): 1
Response by RECIST (advanced solid tumors; [12]): partial response
Time on pictilisib (advanced solid tumors; [12]): 9.5 months
Duration of stable disease (advanced solid tumors; [9]): 7.5 months
Duration of radiological stable disease (RECIST) (advanced solid tumors; [10]): 4 months
Serum CA125 after treatment (advanced solid tumors; platinum-refractory ovarian cancer patient, decrease from 1214 U/ml): 400 U/ml
IC50 [3]: 3 nM
Mean fold-change (post- over pre-treatment) in plasma insulin (plasma insulin): 3.58 (95%CI: 2.33-5.49)
IC50 [4]: 33 nM
IC50 [5]: 3 nM
fold less activity against mTOR compared to p110α (mTOR): 193 fold
growth inhibition [6]: 98%
growth inhibition [7]: 80%
Central nervous system (CNS) penetration compared with BKM120 [8]: lower
Observed in vitro potency compared with BKM120 (Class I PI3K): higher
